Test results taken from ChEMBL document CHEMBL5257126, “Moderately lipophilic 2-(Het)aryl-6-dithioacetals, 2-phenyl-1,4-benzodioxane-6-dithioacetals and 2-phenylbenzofuran-5-dithioacetals: Synthesis and primary evaluation as potential antidiabetic AMPK-activators” (Bioorg Med Chem, 2023).

Assays:
Assay type in all cases: functional
[1] = tested on: L6; test: Induction of glucose uptake in rat L6 cells assessed as fold increase by measuring 2-NBDG uptake at 2.5 uM preincubated in high glucose medium for 48 hrs followed by compound addition and measured after 24 hrs
[2] = tested on: L6; test: Induction of glucose uptake in rat L6 cells assessed as fold increase by measuring 2-NBDG uptake at 0.25 uM preincubated in high glucose medium for 48 hrs followed by compound addition and measured after 24 hrs
[3] = tested on: L6; test: Induction of glucose uptake in rat L6 cells assessed as fold increase by measuring 2-NBDG uptake at 25 uM preincubated in high glucose medium for 48 hrs followed by compound addition and measured after 24 hrs

## c1ccc(-c2cc3cc(C4SCCCS4)ccc3o2)cc1
[1]
  fold change (FC): 1
[2]
  fold change (FC): 1
[3]
  fold change (FC): 1.2

## c1ccc(C2COc3cc(C4SCCCS4)ccc3O2)cc1 (stereo not drawn)
[1]
  fold change (FC): 1
[2]
  fold change (FC): 1
[3]
  fold change (FC): 1.2

## OCCOCCSC(SCCOCCO)c1ccc2c(c1)CCC(c1ccccc1)O2 (stereo not drawn)
[1]
  fold change (FC): 1.1
[2]
  fold change (FC): 1
[3]
  fold change (FC): 1.1

## c1ccc(-c2cc3cc(C4SCCCCS4)ccc3o2)cc1
[1]
  fold change (FC): 1
[2]
  fold change (FC): 1
[3]
  fold change (FC): 1.1

## CC(C)(C)OC(=O)NCCSC(SCCNC(=O)OC(C)(C)C)c1ccc2c(c1)CCC(c1ccccc1)O2 (stereo not drawn)
[1]
  fold change (FC): 1
[2]
  fold change (FC): 1
[3]
  fold change (FC): 1

## O=C(O)CCSC(SCCC(=O)O)c1ccc2c(c1)CCC(c1ccccc1)O2 (stereo not drawn)
[1]
  fold change (FC): 1.1
[2]
  fold change (FC): 0.9
[3]
  fold change (FC): 1.2

## c1ccc(C2CCc3cc(C4NCCS4)ccc3O2)cc1 (stereo not drawn)
[1]
  fold change (FC): 0.9
[2]
  fold change (FC): 1
[3]
  fold change (FC): 1.2

## O=C(NCCSC(SCCNC(=O)OCc1ccccc1)c1ccc2c(c1)CCC(c1ccccc1)O2)OCc1ccccc1 (stereo not drawn)
[1]
  fold change (FC): 1.1
[2]
  fold change (FC): 0.9
[3]
  fold change (FC): 1.1

## O[C@H]1CS[C@@H](c2ccc3c(c2)CCC(c2ccccc2)O3)SC1 (stereo partly drawn)
[1]
  fold change (FC): 1
[2]
  fold change (FC): 1.1
[3]
  fold change (FC): 1

## OCCSC(SCCO)c1ccc2c(c1)CCC(c1cccnc1)O2 (stereo not drawn)
[1]
  fold change (FC): 1.7
[2]
  fold change (FC): 1.4
[3]
  fold change (FC): 1.9

## COc1ccc(C2CCc3cc(C4SCCCCS4)ccc3O2)cc1 (stereo not drawn)
[1]
  fold change (FC): 1.9
[2]
  fold change (FC): 1.4
[3]
  fold change (FC): 2.2
